Here are results for 31 molecules from US20240336567A1, “PESTICIDAL AND HERBICIDAL COMPOUNDS AND METHODS OF USE THEREOF” (AG Plenus Ltd, priority 2021, published 2024).

For assay [1], the system named is Arabidopsis thaliana. As to the kind of experiment: HTPS - Dicot - Pre-emergence. Conditions: N/A: not active; for Emax: read-out: HTPS - Dicot - Pre Max effect. The format is in vivo. As for the experimental part: (§1) Arabidopsis thaliana seeds were sown in 96 well plates filled with irrigated Sweet sand (10%>clay) that is washed from salts and minerals using tap water. 5-10 seeds were sown in the center of each well. 7-8 days post sowing, at 2 true leaves stage, thinning out was performed to ensure that compound application is done on a single plant per well. The plates were placed in a controlled greenhouse in a random order inside a bath which allows flooding irrigation with tap water supplemented with a fertilizer. Applied compounds were dissolved into a final solution of 50% acetone, 49.9% DDW, 0.1% tween-20. A 96 well plate was used as a stock plate for preparing application solutions for 8 repeats. Each row contained different concentrations per chemical. Maximal concentration for application was 1.5 Kg/Ha and dilution factor is 2.5. Chemical application was performed one day after thinning out in a chemical hood. 5 μL applied on first two true leaves in each well using 12 channel pipettes. Data collection: RGB (red, green, blue) data for green area per well was documented using camera. Data is collected at a few time points during the experiment: one day after thinning and before chemical application, two-, six- or nine-days post application. During the last two documentations, visual phenotyping was performed. Data analysis: Given RGB results and visual phenotype scores, a student t-test conducted to compare between treatment and control performance for continuous data (RGB) and Fisher exact test to analyze the non-continuous data (phenotypic scores). Dose-Response curves are generated for each treatment to infer ED50 and max. inhibition parameters, using treatment's log concentration range as the […] variable and normalized green area. These experiments are conducted similarly except that either Arabidopsis thaliana or Eragrostis teff seeds were sowed (5-10 or 5-7, respectively), plant thinning out was not performed, compound dissolved into a final solution of 50% acetone, 49.9% DDW, compound application was done at 30 μL volume per well directly on sowed soil before plant emergence and data was collected 10 or 7 days after chemical application on dicot or monocot plants, respectively. Plate imaging performed at 11 and 18 DAA. RGB data for green area per well was documented and used to extract % inhibition. Dose-Response curves were built for each treatment to infer ED50, ED75 and ED90 parameters, using treatment's log concentration range as the independent variable and normalized green area as the dependent variable. Treatments were compared to controls performance given RGB results and using student's t-test (p-val≤0.05).

The subject of the next assay is Eragrostis teff. As to the kind of experiment: HTPS - Monocot - Pre-emergence. It counts as in vivo. Conditions: N/A: not active; for Emax: read-out: HTPS - Monocot - Pre Max effect. The method, then: as §1
The nature of assay [2]: in vitro thermal shift (binding of compound to the target). Conditions: thermal shift caused by binding of the compound to the (unnamed) target.
In assay [3] the test system is Arabidopsis thaliana. As to the kind of experiment: HTPS (high throughput on soil) - Dicot - Post-emergence. It counts as in vivo. Particulars: N/A: not active; for Emax: read-out: HTPS - Dicot - Post Max effect; for HTPS - Dicot - Post ED50: from normalized green area. The method, then:
as §1, with “area.” for “area. These experiments are conducted similarly except that either Arabidopsis thaliana or Eragrostis teff seeds were sowed (5-10 or 5-7, respectively), plant thinning out was not performed, compound dissolved into a final solution of 50% acetone, 49.9% DDW, compound application was done at 30 μL volume per well directly on sowed soil before plant emergence and data was collected 10 or 7 days after chemical application on dicot or monocot plants, respectively.”

Take `CC(CN)Oc1ccc(F)c(C(=O)O)c1` (stereo not shown) [Compound 101]: the Emax amounted to 20% in the assay with Arabidopsis thaliana [1], 12% with Eragrostis teff and 24% in the assay with Arabidopsis thaliana [3]. The “in vitro Thermal Shift” value in assay [2] stood at 13 °C.

For the molecule `CC(C)(N)COc1cccc(C(=O)O)c1` [Compound 103], the “in vitro Thermal Shift” value in assay [2] is 8 °C. In addition, in the assay with Arabidopsis thaliana [3], the Emax was found to be 100% and the “HTPS - Dicot - Post ED50” value stood at 157 g/ha.

Regarding `CC(N)COc1ccc(Cl)c(C(=O)O)c1` (stereo not shown) [Compound 107], in the assay with Arabidopsis thaliana [1], the “HTPS - Dicot - Pre ED50” value came to 127 g/ha and the Emax amounted to 100%. In the assay with Eragrostis teff, the “HTPS - Monocot - Pre ED50” value is listed as 660 g/ha and the Emax is 45%. Also, the “in vitro Thermal Shift” value in assay [2] is 14 °C. In addition, in the assay with Arabidopsis thaliana [3], the Emax was determined as 100% and the “HTPS - Dicot - Post ED50” value worked out at 400 g/ha.

`CC(CN)Nc1cccc(C(=O)O)c1` (stereo not shown) [Compound 119]: the Emax turned out to be 22% in the assay with Arabidopsis thaliana [1], 3% in the assay on Eragrostis teff and 33% with Arabidopsis thaliana [3]. Besides, the “in vitro Thermal Shift” value in assay [2] was 7 °C.

Take `NC1(COc2cccc(C(=O)O)c2)CC1` [Compound 121]: the “in vitro Thermal Shift” value in assay [2] worked out at 11 °C. Also, in the assay on Arabidopsis thaliana [3], the Emax turned out to be 99% and the “HTPS - Dicot - Post ED50” value is 256 g/ha.

Take `NC1CCCC1Oc1cccc(C(=O)O)c1` (stereo not shown) [Compound 122]: the Emax in the assay with Eragrostis teff came out at 89%; with Arabidopsis thaliana [3] it was 100%. The “in vitro Thermal Shift” value in assay [2] turned out to be 16 °C. The “HTPS - Dicot - Post ED50” value in the assay with Arabidopsis thaliana [3] was found to be 19 g/ha.

For the molecule `NCCOc1cccc(C(=O)O)c1` [Compound 127], the “HTPS - Dicot - Pre ED50” value with Arabidopsis thaliana [1] came to 180 g/ha. Further, the Emax in the assay with Arabidopsis thaliana [1] was 100%; with Eragrostis teff it was 94%; in the assay on Arabidopsis thaliana [3], 100%. The “in vitro Thermal Shift” value in assay [2] worked out at 9 °C. Besides, the “HTPS - Dicot - Post ED50” value in the assay on Arabidopsis thaliana [3] is reported as 134 g/ha.

Consider `NCCNc1ccc(Cl)c(C(=O)O)c1` [Compound 133], for which the Emax stood at 5% with Arabidopsis thaliana [1], 0% with Eragrostis teff and 40% in the assay on Arabidopsis thaliana [3]. Moreover, the “in vitro Thermal Shift” value in assay [2] turned out to be 6 °C.

`CC(N)CNc1ccc(Cl)c(C(=O)O)c1` (stereo not shown) [Compound 139]: in the assay on Arabidopsis thaliana [1], the “HTPS - Dicot - Pre ED50” value is given as 256 g/ha and the Emax came to 100%. Besides, the “in vitro Thermal Shift” value in assay [2] amounted to 9 °C.

Regarding `CC(N)CSc1cccc(C(=O)O)c1` (stereo not shown) [Compound 140], the Emax turned out to be 0% in the assay on Arabidopsis thaliana [1], 33% in the assay on Eragrostis teff and 15% in the assay with Arabidopsis thaliana [3]. In addition, the “in vitro Thermal Shift” value in assay [2] was 5 °C.

Regarding `CCOC(=O)c1cccc(OCC(C)N)c1` (stereo not shown) [Compound 150], in the assay on Arabidopsis thaliana [1], the “HTPS - Dicot - Pre ED50” value is 150 g/ha and the Emax was found to be 100%. Also, in assay [2], the “in vitro Thermal Shift” value was 6 °C.

With `NCCSc1cccc(C(=O)O)c1` [Compound 151], in assay [2], the “in vitro Thermal Shift” value came to 5 °C.

Consider `Cc1ccc(OCCN)cc1C(=O)O` [Compound 152], for which the “in vitro Thermal Shift” value in assay [2] was determined as 4 °C.

On to `C[C@H](N)COc1cccc(C(=O)O)c1` [Compound 155], for which, in the assay with Arabidopsis thaliana [1], the “HTPS - Dicot - Pre ED50” value is reported as 60 g/ha and the Emax was 100%. In the assay on Eragrostis teff, the “HTPS - Monocot - Pre ED50” value came out at 170 g/ha and the Emax is 100%. Further, in assay [2], the “in vitro Thermal Shift” value stood at 13 °C. Besides, in the assay on Arabidopsis thaliana [3], the Emax is 100% and the “HTPS - Dicot - Post ED50” value was determined as 56 g/ha.

Turning to `CCC(N)COc1cccc(C(=O)O)n1` (stereo not shown) [Compound 168], the “in vitro Thermal Shift” value in assay [2] stood at 15 °C. Moreover, in the assay on Arabidopsis thaliana [3], the Emax worked out at 100% and the “HTPS - Dicot - Post ED50” value is 22 g/ha.

Take `NC1CCCC1Oc1cccc(C(=O)O)n1` (stereo not shown) [Compound 173]: in the assay on Arabidopsis thaliana [3], the Emax worked out at 100% and the “HTPS - Dicot - Post ED50” value is 463 g/ha.

Take `C[C@@H](N)COc1cccc(C(=O)O)n1` [Compound 174]: in the assay with Arabidopsis thaliana [1], the “HTPS - Dicot - Pre ED50” value came to 3.8 g/ha and the Emax is 100%. In assay [2], the “in vitro Thermal Shift” value is 15 °C. Moreover, in the assay on Arabidopsis thaliana [3], the Emax amounted to 100% and the “HTPS - Dicot - Post ED50” value was 44 g/ha.

In the case of `C[C@H](N)COc1cccc(C(=O)O)n1` [Compound 175], in the assay on Arabidopsis thaliana [1], the “HTPS - Dicot - Pre ED50” value is recorded as 3.8 g/ha and the Emax was 100%. Further, the “in vitro Thermal Shift” value in assay [2] was found to be 15 °C. In the assay with Arabidopsis thaliana [3], the Emax was found to be 100% and the “HTPS - Dicot - Post ED50” value was 7 g/ha.

As for `CCOC(=O)CNC(=O)c1cccc(OCC(C)N)n1` (stereo not shown) [Compound 176], the “in vitro Thermal Shift” value in assay [2] is 2 °C. Further, in the assay on Arabidopsis thaliana [3], the Emax came to 100% and the “HTPS - Dicot - Post ED50” value turned out to be 85 g/ha.

With `CCOC(=O)CCOC(=O)c1cccc(OCC(C)N)n1` (stereo not shown) [Compound 177], the “in vitro Thermal Shift” value in assay [2] was 6 °C. Also, in the assay on Arabidopsis thaliana [3], the Emax turned out to be 100% and the “HTPS - Dicot - Post ED50” value is 27 g/ha.

For the molecule `CCOC(=O)CNC(=O)c1cccc(OCC(C)N)c1` (stereo not shown) [Compound 178], the “in vitro Thermal Shift” value in assay [2] turned out to be 1 °C. For the same molecule, in the assay with Arabidopsis thaliana [3], the Emax amounted to 100% and the “HTPS - Dicot - Post ED50” value worked out at 39 g/ha.

Consider `CCOC(=O)COC(=O)c1cccc(OCC(C)N)n1` (stereo not shown) [Compound 179], for which, in assay [2], the “in vitro Thermal Shift” value is 9 °C. For the same molecule, in the assay on Arabidopsis thaliana [3], the Emax came to 100% and the “HTPS - Dicot - Post ED50” value was 22 g/ha.

As to `COC(=O)COC(=O)c1cccc(OCC(C)N)n1` (stereo not shown) [Compound 180], in assay [2], the “in vitro Thermal Shift” value worked out at 12 °C. Further, in the assay on Arabidopsis thaliana [3], the Emax is 100% and the “HTPS - Dicot - Post ED50” value came out at 13 g/ha.

With `CC(N)COc1cccc(C(=O)OCC(=O)O)n1` (stereo not shown) [Compound 181], the “in vitro Thermal Shift” value in assay [2] was determined as 14 °C. Moreover, in the assay with Arabidopsis thaliana [3], the Emax was found to be 100% and the “HTPS - Dicot - Post ED50” value worked out at 23 g/ha.

With `COC(=O)CCOC(=O)c1cccc(OCC(C)N)n1` (stereo not shown) [Compound 182], in the assay with Arabidopsis thaliana [3], the Emax amounted to 100% and the “HTPS - Dicot - Post ED50” value was 72 g/ha.

In the case of `CC(N)COc1cccc(C(=O)OCCC(=O)O)n1` (stereo not shown) [Compound 183], in the assay with Arabidopsis thaliana [3], the Emax was 100% and the “HTPS - Dicot - Post ED50” value was found to be 17 g/ha.

`CCCCOC(=O)c1cccc(OCC(C)N)n1` (stereo not shown) [Compound 184]: the “in vitro Thermal Shift” value in assay [2] was determined as 5 °C. For the same molecule, in the assay on Arabidopsis thaliana [3], the Emax was found to be 100% and the “HTPS - Dicot - Post ED50” value stood at 36 g/ha.

As to `C#CCOC(=O)c1cccc(OCC(C)N)n1` (stereo not shown) [Compound 185], the “in vitro Thermal Shift” value in assay [2] worked out at 10 °C. Besides, in the assay with Arabidopsis thaliana [3], the Emax stood at 100% and the “HTPS - Dicot - Post ED50” value is 30 g/ha.

As to `CC(N)COc1cc(Cl)c(F)c(C(=O)O)c1` (stereo not shown) [Compound 186], the “in vitro Thermal Shift” value in assay [2] is 16 °C. Besides, in the assay on Arabidopsis thaliana [3], the Emax turned out to be 100% and the “HTPS - Dicot - Post ED50” value worked out at 200 g/ha.

In the case of `COC(=O)c1cccc(OCC(C)N)n1` (stereo not shown) [Compound 218], in assay [2], the “in vitro Thermal Shift” value was determined as 8 °C. In the assay on Arabidopsis thaliana [3], the Emax amounted to 100% and the “HTPS - Dicot - Post ED50” value is 14 g/ha.

As to `CCOC(=O)c1cccc(OCC(C)N)n1` (stereo not shown) [Compound 219], the “in vitro Thermal Shift” value in assay [2] amounted to 3 °C. Moreover, in the assay on Arabidopsis thaliana [3], the Emax was 100% and the “HTPS - Dicot - Post ED50” value was 48 g/ha.
